This is an account of results in ChEMBL document CHEMBL3853265 (Medchemcomm, 2016).

Data set [1] deals with T1, Solute carrier family 22 member 12 (Homo sapiens, UniProt Q96S37).
T1 sequence (Q96S37 whole entry): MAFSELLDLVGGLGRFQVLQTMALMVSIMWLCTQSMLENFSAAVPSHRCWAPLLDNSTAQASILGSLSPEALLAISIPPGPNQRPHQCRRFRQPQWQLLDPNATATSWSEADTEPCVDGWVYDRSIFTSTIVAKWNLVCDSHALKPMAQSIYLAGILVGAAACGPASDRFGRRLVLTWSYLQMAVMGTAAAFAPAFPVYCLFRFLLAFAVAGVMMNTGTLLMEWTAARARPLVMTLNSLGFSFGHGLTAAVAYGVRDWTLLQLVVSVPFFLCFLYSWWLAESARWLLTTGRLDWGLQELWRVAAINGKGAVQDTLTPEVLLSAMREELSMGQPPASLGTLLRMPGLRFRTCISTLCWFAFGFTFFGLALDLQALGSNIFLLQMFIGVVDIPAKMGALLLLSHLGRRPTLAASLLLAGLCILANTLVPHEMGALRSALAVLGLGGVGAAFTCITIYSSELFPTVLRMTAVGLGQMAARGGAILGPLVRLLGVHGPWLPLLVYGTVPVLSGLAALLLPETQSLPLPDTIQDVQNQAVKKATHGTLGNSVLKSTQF
The experiment in a line: Inhibition of human C-terminal eGFP-tagged URAT1 long isoform expressed in CHO cells assessed as decrease in [14C]-uric acid uptake preincubated for 15 mins followed by [14C]-uric acid addition and incubated in dark for 3 hrs by scintillation counting method. In kind it is cell-based.

Data set [2] in a line: Octanol-water partition co-efficient, log D of the compound by shake flask method. Format: physicochemical.
Data set [3] can be described thus: Intrinsic clearance in human liver microsomes. Particulars: read-out: CLH. In kind it is ADME.
The next data set addresses CYP2C9 (Homo sapiens, UniProt P11712). Put plainly: Inhibition of CYP2C9 (unknown origin) at 3 uM relative to control. Format: ADME.
Data set [4] in a line: Dissociation constant, pKa of the compound. Format: physicochemical.

Sequence of CYP2C9 (P11712 whole entry): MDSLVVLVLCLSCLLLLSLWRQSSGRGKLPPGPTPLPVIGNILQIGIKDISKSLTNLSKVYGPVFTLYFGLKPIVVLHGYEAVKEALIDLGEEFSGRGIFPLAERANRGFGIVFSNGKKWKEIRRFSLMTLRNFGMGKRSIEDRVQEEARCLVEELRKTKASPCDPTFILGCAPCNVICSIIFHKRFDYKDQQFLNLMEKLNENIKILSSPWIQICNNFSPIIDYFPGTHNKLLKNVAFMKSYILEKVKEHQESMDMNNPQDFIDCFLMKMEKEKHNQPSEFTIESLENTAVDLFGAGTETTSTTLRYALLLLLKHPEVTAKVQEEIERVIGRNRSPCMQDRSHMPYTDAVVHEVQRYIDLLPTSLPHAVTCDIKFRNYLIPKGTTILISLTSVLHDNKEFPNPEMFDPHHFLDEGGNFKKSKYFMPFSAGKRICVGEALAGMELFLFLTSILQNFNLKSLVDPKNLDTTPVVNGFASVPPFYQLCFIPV

In general, IC50 refers to the concentration that gives 50% inhibition. With `N#Cc1cc(NS(=O)(=O)c2ccccc2C#N)ccc1Cl`, in data set [1], the IC50 stood at 127 nM.

Broadly, the logD is lipophilicity at a set pH, counting ionised and neutral species. The term inhibition denotes the drop in the measured response relative to a control, in per cent. A low value points to a weak effect. In the case of `O=S(=O)(Nc1cccc(OC(F)(F)F)c1)c1ccccc1C(F)(F)F`, the IC50 in data set [1] was 1480 nM. The same molecule yielded a logD in data set [2] of 3.9. Besides, the microsomal CLint in data set [3] came to 55 µL/min/mg. For the same molecule, on CYP2C9, the inhibition at 3 µM worked out at 81%.

In the case of `COc1ccccc1S(=O)(=O)Nc1ccc(C#N)c(Cl)c1`, in data set [1], the IC50 turned out to be 199 nM.

Turning to `O=S(=O)(Nc1ccc(F)c(C(F)(F)F)c1)c1ccccc1C(F)(F)F`, the IC50 in data set [1] was determined as 484 nM.

Consider `N#Cc1c(Cl)cccc1NS(=O)(=O)c1ccccc1C(F)(F)F`, for which, in data set [1], the IC50 turned out to be 23 nM. Moreover, the logD in data set [2] came out at 1. Moreover, the microsomal CLint in data set [3] came to 30 µL/min/mg. In addition, the inhibition at 3 µM against CYP2C9 amounted to 86%.

In the case of `N#Cc1ccc(NS(=O)(=O)c2ccccc2C(F)(F)F)cc1C(F)(F)F`, the IC50 in data set [1] was determined as 29 nM. The logD in data set [2] amounted to 1.8. For the same molecule, in data set [3], the microsomal CLint was below 12 µL/min/mg. For the same molecule, the inhibition at 3 µM against CYP2C9 is 61%.

As for `COc1cncc(NS(=O)(=O)c2ccccc2C(F)(F)F)c1`, the IC50 in data set [1] came out at 89 nM. The logD in data set [2] came out at 1.3. In addition, the microsomal CLint in data set [3] is below 8 µL/min/mg. For the same molecule, testing at 3 µM against CYP2C9 gave an inhibition of 18%.

For the molecule `N#Cc1ccccc1NS(=O)(=O)c1ccccc1C(F)(F)F`, in data set [1], the IC50 turned out to be 616 nM. The logD in data set [2] came to 0.8. The microsomal CLint in data set [3] stood at 19 µL/min/mg. The molecule also registered an inhibition at 3 µM on CYP2C9 of 11%.

`N#Cc1ccc(NS(=O)(=O)c2ccccc2C(F)(F)F)c(Cl)c1`: the IC50 in data set [1] amounted to 39 nM. The molecule also came in with a logD in data set [2] of 1.1. For the same molecule, in data set [3], the microsomal CLint came out at 14 µL/min/mg. At CYP2C9, 3 µM produced 82% inhibition.

With `Cc1ccncc1NS(=O)(=O)c1ccccc1C(F)(F)F`, the IC50 in data set [1] was above 10000 nM.

Take `O=S(=O)(Nc1ccccc1F)c1ccccc1C(F)(F)F`: the IC50 in data set [1] stood at 3610 nM. The same molecule displayed a logD in data set [2] of 2.4. This molecule also had an inhibition at 3 µM against CYP2C9 of 15%.

As for `N#Cc1cc(NS(=O)(=O)c2ccccc2OC(F)(F)F)ccc1Cl`, the IC50 in data set [1] stood at 20 nM.

On to `N#Cc1ccc(NS(=O)(=O)c2ccccc2C(F)(F)F)cc1`, for which, in data set [1], the IC50 worked out at 119 nM.

For the molecule `N#Cc1ccc(NS(=O)(=O)c2ccccc2C#N)cc1Cl`, in data set [1], the IC50 was 156 nM.

On to `Cc1ccccc1S(=O)(=O)Nc1ccc(Cl)c(C#N)c1`, for which, in data set [1], the IC50 worked out at 183 nM.

As to `COc1ncccc1NS(=O)(=O)c1ccccc1C(F)(F)F`, the IC50 in data set [1] stood at 3920 nM.

With `N#Cc1ccc(Cl)cc1NS(=O)(=O)c1ccccc1C(F)(F)F`, the IC50 in data set [1] is 187 nM.

What is called pKa is the pH at which an ionisable group is half protonated. High values mean a group that holds its proton tightly, low ones a group that gives up its proton readily. As for `N#Cc1cc(NS(=O)(=O)c2ccccc2C(F)(F)F)ccc1Cl`, in data set [1], the half-inhibitory concentration (IC50) came out at 18 nM. This molecule also came in with a logD in data set [2] of 2.3. The molecule also had a pKa in data set [4] of 5.8. For the same molecule, the microsomal CLint in data set [3] is below 12 µL/min/mg. 3 µM produced 76% inhibition on CYP2C9.

Consider `N#Cc1cc(NS(=O)(=O)c2ccccc2Cl)ccc1Cl`, for which the IC50 in data set [1] was found to be 81 nM.

For `N#Cc1ccc(Cl)c(NS(=O)(=O)c2ccccc2C(F)(F)F)c1`, the IC50 in data set [1] turned out to be 71 nM.

In the case of `N#Cc1cccc(NS(=O)(=O)c2ccccc2C(F)(F)F)c1`, in data set [1], the IC50 came to 166 nM. Besides, the logD in data set [2] came to 1.9. Further, in data set [3], the microsomal CLint was below 8 µL/min/mg. At CYP2C9, this molecule showed an inhibition at 3 µM of 28%.

As for `N#Cc1cc(Cl)ccc1NS(=O)(=O)c1ccccc1C(F)(F)F`, the IC50 in data set [1] was 111 nM.

With `N#Cc1cc(NS(=O)(=O)c2ccccc2C(F)(F)F)ccc1C(F)(F)F`, the IC50 in data set [1] came to 32 nM. This molecule also had a logD in data set [2] of 2. The molecule also came in with a pKa in data set [4] of 5.1. In addition, in data set [3], the microsomal CLint stood at 18 µL/min/mg. This molecule registered an inhibition at 3 µM against CYP2C9 of 86%.

For `Cc1cncc(NS(=O)(=O)c2ccccc2C(F)(F)F)c1`, the IC50 in data set [1] was 185 nM.

As for `O=S(=O)(Nc1ccc(F)c(F)c1)c1ccccc1C(F)(F)F`, the IC50 in data set [1] was 1970 nM.

As to `Cc1ccc(NS(=O)(=O)c2ccccc2C(F)(F)F)cn1`, the concentration for half-maximal inhibition (IC50) in data set [1] came out at 1030 nM.

With `O=S(=O)(Nc1cncc(Br)c1)c1ccccc1C(F)(F)F`, the IC50 in data set [1] turned out to be 35 nM. Moreover, the logD in data set [2] stood at 1.6. Further, the pKa in data set [4] is 5.3. In data set [3], the microsomal CLint came out at 14 µL/min/mg. For the same molecule, on CYP2C9, testing at 3 µM gave an inhibition of 38%.

For the molecule `Cc1ccccc1S(=O)(=O)Nc1ccc(C#N)c(Cl)c1`, the IC50 in data set [1] is 89 nM.

Regarding `COc1ccc(NS(=O)(=O)c2ccccc2C(F)(F)F)cn1`, the half-maximal inhibitory concentration (IC50) in data set [1] worked out at 1170 nM.

On to `O=S(=O)(Nc1cnc2ccccc2c1)c1ccccc1C(F)(F)F`, for which, in data set [1], the IC50 turned out to be 7 nM. This molecule returned a logD in data set [2] of 2.5. Besides, the microsomal CLint in data set [3] was determined as 153 µL/min/mg. Moreover, the inhibition at 3 µM at CYP2C9 amounted to 39%.

As to `O=S(=O)(Nc1ccccc1OC(F)F)c1ccccc1C(F)(F)F`, the IC50 in data set [1] was 1970 nM.

In the case of `N#Cc1ccc(NS(=O)(=O)c2ccccc2Cl)cc1Cl`, the IC50 in data set [1] worked out at 81 nM.

Consider `N#Cc1ccc(NS(=O)(=O)c2ccccc2C(F)(F)F)cc1Cl`, for which, in data set [1], the IC50 was found to be 18 nM. For the same molecule, the logD in data set [2] worked out at 1.8. The same molecule had a pKa in data set [4] of 5.1. Besides, the microsomal CLint in data set [3] worked out at 11 µL/min/mg. This molecule also returned an inhibition at 3 µM against CYP2C9 of 92%.

Regarding `COc1ccncc1NS(=O)(=O)c1ccccc1C(F)(F)F`, in data set [1], the IC50 is above 10000 nM.
